{"source": "paper PMC7081834", "about": "(Science (New York, N.Y.), 2019)", "molecular_target": "WWP1 (WW domain–containing ubiquitin E3 ligase 1) (Homo sapiens, UniProt Q9H0M0, F577A/Y656A)", "sequence (Q9H0M0 546-922 F577A/Y656A limits assumed)": "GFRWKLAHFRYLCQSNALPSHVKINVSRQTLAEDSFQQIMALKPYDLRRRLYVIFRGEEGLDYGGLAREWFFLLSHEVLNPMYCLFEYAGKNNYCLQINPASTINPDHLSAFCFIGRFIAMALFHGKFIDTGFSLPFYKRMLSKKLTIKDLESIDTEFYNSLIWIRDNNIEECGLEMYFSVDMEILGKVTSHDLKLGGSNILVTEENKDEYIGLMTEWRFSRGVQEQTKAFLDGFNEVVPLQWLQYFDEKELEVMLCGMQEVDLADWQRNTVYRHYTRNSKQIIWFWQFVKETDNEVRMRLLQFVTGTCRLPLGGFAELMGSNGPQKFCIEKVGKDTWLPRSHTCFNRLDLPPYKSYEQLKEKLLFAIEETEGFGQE", "assay": "microscale thermophoresis", "type": "binding", "data": [{"smiles": "OCc1c[nH]c2ccccc12", "note": "[I3C, indole-3-carbinol]", "values": [{"measurement": "Kd", "result": "~7.72", "unit": "µM"}]}]}
